Series [1] has as its system Rattus norvegicus. As to the kind of experiment: Antiparkinsonian effect in Parkinson's disease rat model of assessed as reduction in L-DOPA-induced dyskinesia at 0.5 to 1.5 mg/kg, ip qd for 21 days treated 15 mins before L-DOPA challenge measured on day 14, 17 and 23. The format is functional, organism-based.
For series [2], the system named is Rattus norvegicus. As to the kind of experiment: Antiparkinsonian effect in 6-hydroxydopamine lesioned Sprague-Dawley rat Parkinson's disease model assessed as inhibition of L-DOPA-enhanced FosB expression in striatum at 1.5 mg/kg administered qd for 21 days by Western blot analysis. It counts as functional, organism-based. Also on record: dose 1.5 mg/kg. (In general: Immunoblotting shows a protein as a band on a membrane.)

The subject of series [3] is Rattus norvegicus. As to the kind of experiment: Toxicity in Parkinson's disease rat model of assessed as induction of dyskinesia at 0.5 to 1.5 mg/kg, ip qd for 21 days. It counts as organism-based. Also on record: dose 0.5-1.5 mg/kg, route intraperitoneal. The conditions noted are these: in vivo, 504 h.
In series [4] the target is D(2) dopamine receptor (Homo sapiens, UniProt P14416). Nature of the series: Agonist activity at dopamine D2 receptor expressed in HEK293 cells assessed as stimulation of [35S]GTPgammaS binding after 30 mins. The format is functional, cell-based.
Sequence of D(2) dopamine receptor (P14416 whole entry): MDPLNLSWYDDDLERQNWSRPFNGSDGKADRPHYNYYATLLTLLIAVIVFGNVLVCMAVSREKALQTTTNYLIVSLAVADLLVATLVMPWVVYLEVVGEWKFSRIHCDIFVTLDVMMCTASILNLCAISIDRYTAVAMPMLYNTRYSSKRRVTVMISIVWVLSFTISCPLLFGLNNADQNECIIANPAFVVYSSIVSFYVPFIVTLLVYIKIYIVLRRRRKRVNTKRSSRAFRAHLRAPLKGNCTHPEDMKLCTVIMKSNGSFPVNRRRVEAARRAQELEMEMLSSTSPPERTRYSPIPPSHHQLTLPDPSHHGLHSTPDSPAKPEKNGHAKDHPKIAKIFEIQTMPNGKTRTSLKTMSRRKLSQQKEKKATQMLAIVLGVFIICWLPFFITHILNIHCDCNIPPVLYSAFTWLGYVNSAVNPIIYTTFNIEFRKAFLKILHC
In series [5] the target is T1, Alpha-1A adrenergic receptor (Homo sapiens, UniProt P35348).
T1 sequence (P35348 whole entry): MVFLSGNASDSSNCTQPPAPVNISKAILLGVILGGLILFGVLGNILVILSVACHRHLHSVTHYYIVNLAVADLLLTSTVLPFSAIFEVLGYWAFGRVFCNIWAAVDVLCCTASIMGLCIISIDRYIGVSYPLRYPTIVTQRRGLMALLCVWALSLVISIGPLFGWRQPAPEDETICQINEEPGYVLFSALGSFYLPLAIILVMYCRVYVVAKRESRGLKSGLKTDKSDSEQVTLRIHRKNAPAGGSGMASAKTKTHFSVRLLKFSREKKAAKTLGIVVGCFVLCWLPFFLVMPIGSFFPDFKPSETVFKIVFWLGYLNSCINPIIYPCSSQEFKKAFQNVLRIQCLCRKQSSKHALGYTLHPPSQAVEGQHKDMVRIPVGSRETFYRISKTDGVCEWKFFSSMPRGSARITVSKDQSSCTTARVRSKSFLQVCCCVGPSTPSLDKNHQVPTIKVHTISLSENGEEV
Nature of the series: Antagonist activity at adrenergic alpha1A receptor expressed in CHO cells assessed as inhibition of adrenaline-induced intracellular calcium level after 3 to 5 mins by Fluo-4/AM assay. The format is functional, cell-based. (In general: Calcium flux is commonly read through the fluorescence of an indicator in the cells.)

The target in series [6] is T2, Alpha-1B adrenergic receptor (Homo sapiens, UniProt P35368).
T2 sequence (P35368 whole entry): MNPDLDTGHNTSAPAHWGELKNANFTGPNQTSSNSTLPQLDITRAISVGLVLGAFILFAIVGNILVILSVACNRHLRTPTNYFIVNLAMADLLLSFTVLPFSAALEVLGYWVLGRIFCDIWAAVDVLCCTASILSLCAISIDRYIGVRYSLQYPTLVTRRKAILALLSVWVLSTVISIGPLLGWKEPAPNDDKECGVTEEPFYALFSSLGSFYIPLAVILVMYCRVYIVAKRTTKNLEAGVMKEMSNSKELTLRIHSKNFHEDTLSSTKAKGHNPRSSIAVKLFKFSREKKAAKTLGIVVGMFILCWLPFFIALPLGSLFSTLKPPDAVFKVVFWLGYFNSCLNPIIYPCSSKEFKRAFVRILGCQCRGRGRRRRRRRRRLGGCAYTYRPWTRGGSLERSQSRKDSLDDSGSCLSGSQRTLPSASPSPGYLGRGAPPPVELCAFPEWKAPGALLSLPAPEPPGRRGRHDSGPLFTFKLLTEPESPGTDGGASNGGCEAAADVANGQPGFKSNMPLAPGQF
Nature of the series: Antagonist activity at adrenergic Alpha-1B receptor expressed in CHO cells assessed as inhibition of adrenaline-induced intracellular calcium after 3 to 5 mins by Fluo-4/AM assay. The format is functional, cell-based.

Series [7] relates to Rattus norvegicus. Nature of the series: Antiparkinsonian activity in 6-hydroxydopamine lesioned Sprague-Dawley rat assessed as contralateral rotations at 0.5 to 1.5 mg/kg, ip measured every 5 mins for 6 hrs. It counts as functional, organism-based.

Calls of active or inactive are those of the source. No cut-off for these calls is given here.

Usually EC50 stands for the concentration needed to bring the measured effect to its halfway point. A word on the IC50: it is the midpoint of a concentration-inhibition curve. Take `CCCN1CCc2cccc3c2[C@H]1Cc1cccc(OC(=O)CCCCC2CCSS2)c1-3` (some centres not stated): the outcome in series [1], in series [2] and in series [7] was Active. Moreover, the Activity result in series [3] was “Non-toxic”. Also, in series [4], the EC50 is 0.32 µM. The IC50 in series [5] and in series [6] was greater than 10 µM in each case.

Source of the values: ChEMBL document CHEMBL1806354 (J Med Chem, 2011).
